Paper PMC10692163, “Structure-based discovery of novel P-glycoprotein inhibitors targeting the nucleotide binding domains” (Scientific Reports, 2023)
Read-outs that look alike come from different tables or passages of the source.

Assays:
P-gp [1] = target: T1, P-gp (Homo sapiens, UniProt P08183); parameters: method as in PMID 1356264, PMID 7911680, PMID 7772017, PMID 11121420; conditions: read-out: Binding affinity for ATP to P-gp; cited from earlier work
[2] = test system: P-gp nucleotide binding domain; conditions: Table S1, supplement reference list, cited from earlier work
P-gp [3] = target: T1, P-gp; assay: Calcein-AM efflux assay in MDCKII MDR1 cells; format: cell-based; parameters: host or cells: MDCKII MDR1 cells
Experimental: Calcein-AM efflux experiments were performed on MDCKII MDR1 cells, which were seeded on black 96-well microplates. Before the experiments, media was removed from the wells and 50 µL pre-warmed HBSS ^7.4+ was added. After a 15 min incubation period, the HBSS ^7.4+ buffer was removed and 50 µL of solution containing P-gp inhibitor or test compound dissolved in HBSS ^7.4+ or HBSS ^5.5+ were added to the individual wells, followed by addition of 50 µL 10.0 µM calcein-AM giving a final calcein-AM concentration of 5.0 µM. Calcein-AM diffuses into the cell where it is either hydrolysed to a membrane-impermeable fluorescent calcein dye or extruded from the cell by P-gp[63]. Inhibiting P-gp increases the amount of calcein in the cell and a higher amount is hydrolysed to calcein, thus the fluorescence measured is increased. The highest concentration of each compound was added to a cell-containing well in the absence of calcein-AM to investigate if compounds were fluorescent themselves.
(§1) Calcein fluorescence in arbitrary unit (a.u) corrected for background signal, which was the signal obtained from the cells incubated with HBSS ^7.4+ or HBSS ^5.5+ without calcein-AM, was plotted as a function of time and slopes (denoted m below) were obtained by linear regression. The increase in fluorescent calcein is a surrogate marker of increased P-gp inhibition. The slope from curves of fluorescence as a function of time for a compound ( mcompound ) was normalized to the slope of fluorescence in cells exposed to HBSS ^7.4+ or HBSS ^5.5+ only (referred as control, mcontrol ).

P-gp [4] = target: T1, P-gp; assay: Inhibition of verapamil-stimulated sensitive ATPase activity (ATP consumption) in P-gp expressing Sf9 vesicles; format: biochemical; parameters: purchased GenoMembrane Co., Ltd (Kanagawa, Japan); host or cells: Sf9 insect cells infected with baculovirus; purified plasma membrane vesicles; conditions: for IC50: 50 µM verapamil
Experimental: P-gp-mediated drug transport across membranes is driven by energy derived from hydrolysis of ATP. It is, therefore, possible to evaluate drug binding to P-gp by determining the ATPase activity. The method was modified from the procedure reported by Sarkadi et al.[64]. Briefly, solutions of test compounds and positive and negative controls in a reaction medium containing 50 mM MOPS-Tris (pH 7.4), 0.1 mM EGTA, 2 mM DDT, 50 mM KCl, 5 mM sodium azide, and 1 mM ouabain were incubated on ice in a 96 well plate. Then P-gp containing membrane vesicles to a final concentration of 0.5 mg/ml were added on ice to each well. […] Then, the ATPase reaction was started by the addition of MgATP to a final concentration of 5 mM and the plates with vesicles were incubated at 37 ^∘ C for 60 min. The reaction was stopped by the addition of a 10% SDS solution and the amount of inorganic phosphate was determined immediately by addition of a coloring solution containing final concentrations of 8 mM ascorbic acid, 10 mM zinc acetate, and 7 mM ammonium molybdate. The wells were then incubated at 37 ^∘ C for 20 min and the absorbance was scanned at wave lengths from 630 to 850 nm, and 740 nm was used for calculation of ATP consumption based on a phosphate standard curve freshly made with each experiment. To estimate sensitive ATPase activity mediated by P-gp, all experiments were conducted with no compound controls (2% DMSO), positive controls and background controls in which no stop solution was added, all in the absence and presence of 500 µM vanadate. The absorbance measured for a test condition was converted to nmol inorganic phosphate and normalized for reaction time and protein amount. The sensitive ATPase activity was then obtained by subtracting the inorganic phosphate generated in the presence of 500 µM vanadate at otherwise similar conditions.
as §1

[5] = Sf9 vesicles expressing human P-gp, 5 mM MgATP, 60 min, 37 °C, read-out: ATP assay IC50

T1 sequence (P08183 whole entry, the tested form may be a part): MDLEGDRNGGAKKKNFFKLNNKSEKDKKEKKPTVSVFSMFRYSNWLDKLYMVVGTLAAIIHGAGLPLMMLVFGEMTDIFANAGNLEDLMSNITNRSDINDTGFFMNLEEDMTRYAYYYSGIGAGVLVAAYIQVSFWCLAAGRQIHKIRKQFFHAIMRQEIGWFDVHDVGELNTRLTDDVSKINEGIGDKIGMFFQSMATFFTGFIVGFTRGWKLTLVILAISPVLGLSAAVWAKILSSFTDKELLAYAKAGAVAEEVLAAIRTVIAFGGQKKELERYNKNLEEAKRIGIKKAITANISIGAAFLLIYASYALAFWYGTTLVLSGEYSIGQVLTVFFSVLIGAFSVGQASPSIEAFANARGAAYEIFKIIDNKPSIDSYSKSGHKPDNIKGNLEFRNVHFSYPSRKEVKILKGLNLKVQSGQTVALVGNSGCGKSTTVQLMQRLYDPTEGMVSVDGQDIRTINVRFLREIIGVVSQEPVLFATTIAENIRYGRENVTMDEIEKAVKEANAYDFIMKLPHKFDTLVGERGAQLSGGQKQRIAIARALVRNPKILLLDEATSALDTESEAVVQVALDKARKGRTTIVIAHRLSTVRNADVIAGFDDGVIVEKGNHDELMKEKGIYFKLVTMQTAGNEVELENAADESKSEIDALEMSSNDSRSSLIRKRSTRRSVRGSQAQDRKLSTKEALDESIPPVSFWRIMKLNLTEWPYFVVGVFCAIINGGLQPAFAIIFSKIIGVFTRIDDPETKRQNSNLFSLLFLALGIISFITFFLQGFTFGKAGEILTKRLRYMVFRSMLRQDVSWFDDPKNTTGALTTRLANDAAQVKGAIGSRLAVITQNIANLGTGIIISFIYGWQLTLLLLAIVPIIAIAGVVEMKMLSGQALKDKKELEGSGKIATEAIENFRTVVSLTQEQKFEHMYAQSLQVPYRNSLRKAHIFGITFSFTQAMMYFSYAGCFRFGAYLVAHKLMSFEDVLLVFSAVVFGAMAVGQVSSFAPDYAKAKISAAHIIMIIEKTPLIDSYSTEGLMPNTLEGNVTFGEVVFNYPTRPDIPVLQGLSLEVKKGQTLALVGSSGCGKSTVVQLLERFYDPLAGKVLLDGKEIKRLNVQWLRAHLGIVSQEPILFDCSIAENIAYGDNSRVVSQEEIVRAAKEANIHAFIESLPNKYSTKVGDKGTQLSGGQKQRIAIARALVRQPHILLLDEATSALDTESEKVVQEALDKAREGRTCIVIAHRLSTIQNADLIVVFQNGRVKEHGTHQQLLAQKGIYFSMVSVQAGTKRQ

In the case of `Nc1ncnc2c1ncn2[C@@H]1O[C@H](COP(=O)(O)OP(=O)(O)OP(=O)(O)O)[C@@H](O)[C@H]1O` [ATP], the Kd (P-gp [1]) is given as 300 to 800 µM.

In the case of `C=C(CO)[C@H]1Cc2c(ccc3c2O[C@@H]2COc4cc(OC)c(OC)cc4[C@]2(O)C3=O)O1` [12a-Hydroxyamorphigenin], the “Class (known P-gp NBD inhibitor)” value ([2]; ref [1]) is given as “Marginal”.

In the case of `Cn1cnnc1CC(NS(=O)(=O)N1CCC(C(C)(C)C)CC1)C(=O)O` (centres unmarked) [compound 10], the IC50 (P-gp [3]; MDCKII MDR1 cells, extracellular pH 5.5, 5.0 µM calcein-AM, read-out: Calcein-AM, pH 5.5 IC50) is reported as 127 µM, the IC50 (P-gp [3]; MDCKII MDR1 cells, extracellular pH 7.4, 5.0 µM calcein-AM, read-out: Calcein-AM, pH 7.4 IC50) is reported as 299 µM and the “Ability to inhibit calcein-AM efflux” value (P-gp [3]; at both pH 5.5 and pH 7.4) is reported as “ability to inhibit calcein-AM efflux at both pH 5.5 and pH 7.4”. The “Calcein-AM, pH 5.5 LogIC50” value (P-gp [3]; log of IC50 in µM, extracellular pH 5.5) was 2.10, the IC50 (P-gp [3]; log of IC50 in µM, extracellular pH 7.4, read-out: Calcein-AM, pH 7.4 Log IC50 (converted)) was 302 µM and the IC50 (P-gp [4]; [5]) was 332 µM. It also gave an IC50 (P-gp [4]; log of IC50 in µM, Sf9 vesicles, read-out: ATP assay Log IC50 (converted)) of 331 µM.

For `COc1ccc(-c2oc3cc(O)cc(O)c3c(=O)c2O)cc1` [kaempferide], the “Class (known P-gp NBD inhibitor)” value ([2]; ref [4]) is given as “Marginal”.

For `O=c1cc(-c2ccccc2)oc2cc(O)cc(O)c12` [Chrysin], the “Class (known P-gp NBD inhibitor)” value ([2]; ref [1]) is given as “Marginal”.

In the case of `C=C(CO)[C@H]1Cc2c(ccc3c2O[C@@H]2COc4cc(OC)c(OC)cc4[C@@H]2C3=O)O1` [Amorphigenin], the “Class (known P-gp NBD inhibitor)” value ([2]; ref [1]) is given as “Marginal”.

For `Oc1cc(O)c2c(c1)O[C@H](c1cc(O)c(O)c(O)c1)[C@H](O)C2` [Epigallocatechin], the “Class (known P-gp NBD inhibitor)” value ([2]; ref [1]) is given as “Marginal”.

In the case of `O=c1c(O)c(-c2ccc(O)cc2)oc2cc(O)cc(O)c12` [kaempferol], the “Class (known P-gp NBD inhibitor)” value ([2]; ref [4]) is listed as “Marginal”.

In the case of `COc1cc(C2Oc3cc([C@H]4Oc5cc(O)cc(O)c5C(=O)[C@@H]4O)ccc3OC2CO)ccc1O` (some centres unmarked) [Silybin], the “Class (known P-gp NBD inhibitor)” value ([2]; ref [4]) is listed as “Marginal”.

For `C=C(CO)C1Cc2c(ccc3c(=O)c4c(oc23)COc2cc(OC)c(OC)cc2-4)O1` (centres unmarked) [6a,12a,-Dehydroamorphigenin], the “Class (known P-gp NBD inhibitor)” value ([2]; ref [1]) is given as “Marginal”.

In the case of `O=c1c(O)c(-c2ccccc2)oc2cc(O)cc(O)c12` [Galangin], the “Class (known P-gp NBD inhibitor)” value ([2]; ref [4]) is listed as “Marginal”.

In the case of `C=C(C)[C@H]1Cc2c(ccc3c2O[C@@H]2COc4cc(OC)c(OC)cc4[C@@H]2C3=O)O1` [Rotenone], the “Class (known P-gp NBD inhibitor)” value ([2]; ref [1]) is given as “Active”.

For `O=c1cc(-c2ccc(O)cc2)oc2cc(O)cc(O)c12` [Apigenin], the “Class (known P-gp NBD inhibitor)” value ([2]; ref [4]) is listed as “Marginal”.

In the case of `O=c1c(O)c(-c2ccccc2)oc2ccccc12` [3OH-flavone], the “Class (known P-gp NBD inhibitor)” value ([2]; ref [4]) is listed as “Marginal”.

For `Oc1cc(O)c2c(c1)O[C@H](c1ccc(O)c(O)c1)[C@H](O)C2` [Epicatechin], the “Class (known P-gp NBD inhibitor)” value ([2]; ref [5]) is listed as “Marginal”.

In the case of `COc1cc2c(cc1OC)CN(CCc1ccc(NC(=O)c3cc(OC)c(OC)cc3NC(=O)c3cnc4ccccc4c3)cc1)CC2` [Tariquidar], the “Effect on verapamil-stimulated sensitive P-gp ATPase activity” value (P-gp [4]; 1 µM Tariquidar plus 50 µM verapamil) is reported as “reduced to the background buffer level” and the IC50 (P-gp [4]; [5]) is reported as 0.11 µM.

For `O=C(O[C@@H]1Cc2c(O)cc(O)cc2O[C@@H]1c1cc(O)c(O)c(O)c1)c1cc(O)c(O)c(O)c1` [Epigallocatechingallate (EGCG), Epigallocatechingallate], the “Class (known P-gp NBD inhibitor)” value ([2]; ref [3]) is given as “Active”.

In the case of `COc1ccc(-c2coc3cc(O)cc(O)c3c2=O)cc1` [Biochanin A], the “Class (known P-gp NBD inhibitor)” value ([2]; ref [2]) is given as “Active”.

For Mitragynine, the “Class (known P-gp NBD inhibitor)” value ([2]; ref [6]) is given as “Marginal”.
